Where a name gives a salt, the structure may show the parent alone.
Target: T1, human NOX4 (Homo sapiens, UniProt Q9NPH5)
T1 construct: expressed in transfected cells; membrane fraction used
T1 sequence (Q9NPH5 1-578): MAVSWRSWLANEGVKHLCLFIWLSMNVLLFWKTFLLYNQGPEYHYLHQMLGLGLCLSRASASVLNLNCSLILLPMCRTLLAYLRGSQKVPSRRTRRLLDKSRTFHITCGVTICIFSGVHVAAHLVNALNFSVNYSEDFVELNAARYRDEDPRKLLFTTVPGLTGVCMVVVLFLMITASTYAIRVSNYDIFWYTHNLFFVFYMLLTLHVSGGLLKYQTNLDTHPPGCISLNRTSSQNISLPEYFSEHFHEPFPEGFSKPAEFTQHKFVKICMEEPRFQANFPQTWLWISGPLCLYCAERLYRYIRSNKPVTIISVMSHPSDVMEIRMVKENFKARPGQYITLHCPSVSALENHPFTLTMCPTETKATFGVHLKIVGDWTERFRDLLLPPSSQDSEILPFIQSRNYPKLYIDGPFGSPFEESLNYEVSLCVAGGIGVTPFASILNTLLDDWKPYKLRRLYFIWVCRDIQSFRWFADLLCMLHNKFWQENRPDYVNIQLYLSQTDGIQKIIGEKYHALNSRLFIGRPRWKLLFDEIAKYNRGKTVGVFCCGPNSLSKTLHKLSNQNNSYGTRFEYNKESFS
T1 sequence (P13498 1-195 partner): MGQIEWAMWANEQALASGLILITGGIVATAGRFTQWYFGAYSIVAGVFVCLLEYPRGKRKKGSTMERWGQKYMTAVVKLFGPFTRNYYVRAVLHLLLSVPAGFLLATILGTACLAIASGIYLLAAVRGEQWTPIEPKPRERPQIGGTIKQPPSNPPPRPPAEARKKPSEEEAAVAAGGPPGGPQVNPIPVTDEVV
Experiment: Cell free membrane based in vitro NOX4 assay: H2O2 production by membranes expressing human NOX4, measured with Amplex Red
Assay type: biochemical
Settings: for inhibition at 1 µM: 1.0 μM compound, read-out: Percentage inhibition at 1.0 μM; for inhibition at 10 µM: 10.0 μM compound, read-out: Percentage inhibition at 10.0 μM; for IC50: class symbols
Experimental: The inhibition of NOX4 activity was measured as inhibition of formation of reactive oxygen species (ROS) from oxygen in cell free assays. […] A cell free membrane based in vitro assay was developed by preparing membranes from cells stably overexpressing human NOX4. hNOX4/HEK stable cell line was generated in-house for this purpose. Membranes from stably transfected cells overexpressing human NOX4 were prepared by homogenizing the cells in buffer (20 mM HEPES, 1 mM EGTA, 0.5 mM DTT, 0.5% protease inhibitor cocktail, 1 mM PMSF, pH 7.6), followed by centrifugation at 160000 g for 30 min. Membrane fraction (pellet) was resuspended in storage buffer (homogenization buffer with 10% glycerol and 100 mM NaCl) and stored at −80° C. Protein concentration was determined by Bradford reagent. H202 production by membranes expressing human NOX4 was measured using Amplex Red (Invitrogen) by following a slightly modified version of the manufacturer's instruction manual. Briefly, membranes were incubated in assay buffer (25 mM HEPES, 0.12 M NaCl, 3 mM KCl, 1 mM MgCl2, pH 7.4) with Horse Radish Peroxidase (HRP) and Amplex Red. Reaction was started by addition of […] to the membrane mix. Antagonism of NOX4 inhibitors was measured by incubating the membrane with increasing concentrations of the inhibitors for 20 min on a plate shaker prior to addition of NADPH. H2O2 levels were measured for 10 min in a BMG Fluostar microplate reader with excitation and emission wavelengths of 544 nm and 590 nm respectively. Concentration response curves were plotted as a % of maximal response obtained in the absence of the inhibitor. IC50 value was calculated from concentration response curve by nonlinear regression analysis using GraphPad PRISM software.

SMILES	inhibition at 1 µM	inhibition at 10 µM	IC50
COc1ccc(-c2[nH]c3c(c(C)nn3-c3ccc(F)cc3)c(=O)c2O)c(F)c1 [Example 38, 6-(2-Fluoro-4-methoxyphenyl)-1-(4-fluorophenyl)-5-hydroxy-3-methyl-1,7-dihydro-4H-pyrazolo[3,4-b]pyridin-4-one]	87.5%	86.1%	100 to 150 nM
COc1ccc(-c2[nH]c3c(c(C)nn3-c3ccc(F)c(F)c3)c(=O)c2O)c(F)c1 [Example 39, 1-(3,4-Difluorophenyl)-6-(2-fluoro-4-methoxyphenyl)-5-hydroxy-3-methyl-1,7-dihydro-4H-pyrazolo[3,4-b]pyridin-4-one]	85%	87.3%	100 to 150 nM
COc1ccc(-c2[nH]c3c(c(C(F)(F)F)nn3C)c(=O)c2O)c(OC)c1 [Example 51, 6-(2,4-Dimethoxyphenyl)-5-hydroxy-1-methyl-3-(trifluoromethyl)-1,7-dihydro-4H-pyrazolo[3,4-b]pyridin-4-one]	74.4%	86.5%	> 150 nM
Cn1nc(C(F)(F)F)c2c(=O)c(O)c(-c3ccc(-n4ccnc4)cc3)[nH]c21 [Example 54, 5-Hydroxy-6-[4-(1H-imidazol-1-yl)phenyl]-1-methyl-3-(trifluoromethyl)-1,7-dihydro-4H-pyrazolo[3,4-b]pyridin-4-one]	92.1%	94.5%	100 to 150 nM
CCc1nn(C)c2[nH]c(-c3ccccc3Cl)c(O)c(=O)c12 [Example 56, 6-(2-Chlorophenyl)-3-ethyl-5-hydroxy-1-methyl-1,7-dihydro-4H-pyrazolo[3,4-b]pyridin-4-one]	82.4%	69.8%	< 50 nM
Cn1nc2[nH]c(-c3ccccc3Cl)c(O)c(=O)c2c1Cc1ccccc1F [Example 57, 6-(2-Chlorophenyl)-3-(2-fluorobenzyl)-5-hydroxy-2-methyl-2,7-dihydro-4H-pyrazolo[3,4-b]pyridin-4-one]	21.9%	13.5%	
Cn1nc2[nH]c(-c3ccccc3Cl)c(O)c(=O)c2c1-c1ccc(F)cc1 [Example 58, 6-(2-Chlorophenyl)-3-(4-fluorophenyl)-5-hydroxy-2-methyl-2,7-dihydro-4H-pyrazolo[3,4-b]pyridin-4-one]	36.7%	51.2%	
Cc1c2c(=O)c(O)c(-c3ccccc3Cl)[nH]c2nn1C [Example 59, 6-(2-Chlorophenyl)-5-hydroxy-2,3-dimethyl-2,7-dihydro-4H-pyrazolo[3,4-b]pyridin-4-one]	41.1%	38.8%	
Cc1cc2c(=O)c(O)c(-c3ccccc3Cl)[nH]c2s1 [Example 60, 6-(2-Chlorophenyl)-5-hydroxy-2-methylthieno[2,3-b]pyridin-4(7H)-one]	77%	100%	> 150 nM

Other lines, results leading:

inhibition at 1 µM	inhibition at 10 µM	IC50	SMILES
93.3%	100%	< 50 nM	Cn1nc(C(F)(F)F)c2c(=O)c(O)c(-c3ccccc3Cl)[nH]c21 [Example 40, 6-(2-Chlorophenyl)-5-hydroxy-1-methyl-3-(trifluoromethyl)-1,7-dihydro-4H-pyrazolo[3,4-b]pyridin-4-one]
77.7%	87.6%	> 150 nM	Cn1nc(C(F)(F)F)c2c(=O)c(O)c(-c3ccccc3F)[nH]c21 [Example 41, 6-(2-Fluorophenyl)-5-hydroxy-1-methyl-3-(trifluoromethyl)-1,7-dihydro-4H-pyrazolo[3,4-b]pyridin-4-one]
86.8%	96.5%	100 to 150 nM	Cn1nc(C(F)(F)F)c2c(=O)c(O)c(-c3ccc(F)cc3)[nH]c21 [Example 42, 6-(4-Fluorophenyl)-5-hydroxy-1-methyl-3-(trifluoromethyl)-1,7-dihydro-4H-pyrazolo[3,4-b]pyridin-4-one]
90.6%	97.9%	100 to 150 nM	Cn1nc(C(F)(F)F)c2c(=O)c(O)c(-c3ccc(Cl)cc3)[nH]c21 [Example 43, 6-(4-Chlorophenyl)-5-hydroxy-1-methyl-3-(trifluoromethyl)-1,7-dihydro-4H-pyrazolo[3,4-b]pyridin-4-one]
84.6%	100%	> 150 nM	Cn1nc(C(F)(F)F)c2c(=O)c(O)c(-c3ccc(F)cc3Cl)[nH]c21 [Example 44, 6-(2-Chloro-4-fluorophenyl)-5-hydroxy-1-methyl-3-(trifluoromethyl)-1,7-dihydro-4H pyrazolo[3,4-b]pyridin-4-one]
89.1%	98.6%	100 to 150 nM	Cn1nc(C(F)(F)F)c2c(=O)c(O)c(-c3c(F)cccc3Cl)[nH]c21 [Example 45, 6-(2-Chloro-6-fluorophenyl)-5-hydroxy-1-methyl-3-(trifluoromethyl)-1,7-dihydro-4H-pyrazolo[3,4-b]pyridin-4-one]
73.6%	100%	100 to 150 nM	Cn1nc(C(F)(F)F)c2c(=O)c(O)c(-c3ccncc3Cl)[nH]c21 [Example 46, 6-(3-Chloropyridin-4-yl)-5-hydroxy-1-methyl-3-(trifluoromethyl)-1,7-dihydro-4H-pyrazolo[3,4-b]pyridin-4-one hydrochloride]
100%	100%	50 to 100 nM	COc1ccc(-c2[nH]c3c(c(C(F)(F)F)nn3C)c(=O)c2O)c(F)c1 [Example 47, 6-(2-Fluoro-4-methoxyphenyl)-5-hydroxy-1-methyl-3-(trifluoromethyl)-1,7-dihydro-4H-pyrazolo[3,4-b]pyridin-4-one]
84.2%	98.3%	100 to 150 nM	COc1ccc(-c2[nH]c3c(c(C(F)(F)F)nn3C)c(=O)c2O)c(Cl)c1 [Example 48, 6-(2-Chloro-4-methoxyphenyl)-5-hydroxy-1-methyl-3-(trifluoromethyl)-1,7-dihydro-4H-pyrazolo[3,4-b]pyridin-4-one]
100%	100%	> 150 nM	COc1ccc(Cl)c(-c2[nH]c3c(c(C(F)(F)F)nn3C)c(=O)c2O)c1 [Example 49, 6-(2-Chloro-5-methoxyphenyl)-5-hydroxy-1-methyl-3-(trifluoromethyl)-1,7-dihydro-4H-pyrazolo[3,4-b]pyridin-4-one]
89.3%	99.5%	100 to 150 nM	Cn1nc(C(F)(F)F)c2c(=O)c(O)c(-c3cc(Cl)ccc3Cl)[nH]c21 [Example 50, 6-(2,5-Dichlorophenyl)-5-hydroxy-1-methyl-3-(trifluoromethyl)-1,7-dihydro-4H-pyrazolo[3,4-b]pyridin-4-one]
75.8%	94.9%	> 150 nM	Cn1nc(C(F)(F)F)c2c(=O)c(O)c(-c3ccc(Cl)cc3F)[nH]c21 [Example 52, 6-(4-Chloro-2-fluorophenyl)-5-hydroxy-1-methyl-3-(trifluoromethyl)-1,7-dihydro-4H-pyrazolo[3,4-b]pyridin-4-one]
90.5%	84.6%	100 to 150 nM	COc1ccc(-c2[nH]c3c(c(C(F)(F)F)nn3C)c(=O)c2O)cc1 [Example 53, 5-Hydroxy-6-(4-methoxyphenyl)-1-methyl-3-(trifluoromethyl)-1,7-dihydro-4H-pyrazolo[3,4-b]pyridin-4-one]
83.8%	94.2%	> 150 nM	Cn1nc(C(F)(F)F)c2c(=O)c(O)c(-c3ccncc3)[nH]c21 [Example 55, 5-Hydroxy-1-methyl-6-(pyridin-4-yl)-3-(trifluoromethyl)-1,7-dihydro-4H-pyrazolo[3,4-b]pyridin-4-one]
